Experimental findings from patent publication US5137905A, “Heterocyclic acetylenic amines having central nervous system activity” (The Upjohn Company, priority 1991, dated 1992) are described below.

Experiment [1] concerns oxotremorine-induced body tremor. Description: Oxotremorine antagonist assay (body tremor). Format: in vivo, mice. To be noted: Mus musculus, ip; read-out: Oxot. Antagonist Tremor (ED50). How it is done:
Oxotremorine antagonist assays were performed on groups of six mice weighing 18-22 g. Each was dosed intraperitoneally with the test compound prepared in 0.25% methylcellulose and were placed in individual cages. Twenty minutes later the mice were injected subcutaneously with 0.5 mg/kg of oxotremorine dissolved in saline. Ten minutes later the mice were scored for body tremor. Doses of the compound under study began at 100 mg/kg and were decreased at a 0.5 log interval until no responders were obtained.

In experiment [2] the target is CNS cholinergic receptor. Kind of experiment: CNS cholinergic receptor binding, oxotremorine M ligand. To be noted: tritiated oxotremorine M; read-out: CNS Cholinergic Receptor Binding Assays K1 Oxotremorine.
A further experiment deals with HCl-induced writhing. Description: HCl writhing protection (analgesic activity). Format: in vivo, CF1 mice. To be noted: Mus musculus, sc; ED50; s.c. in CF1 mice, 30 min before i.p. 0.15% HCl; read-out: CNS Id (ED50 mg/kg) HCl Writh. Protect. How it is done: For determination of analgesic activity, the test compound was injected subcutaneously into a group of four CF1 mice. Thirty minutes later the mice were injected i.p. with 0.15% HCl, 10 ml./kg. Mice were then placed in plastic boxes and observed for fifteen minutes to record the number of animals failing to writhe.
On the technique in general: An intraperitoneal irritant provokes the stretching counted in writhing tests.

Experiment [3] deals with CNS cholinergic receptor. The conditions noted are these: tritiated quinuclidine benzylate (QNB); read-out: CNS Cholinergic Receptor Binding Assays K1 QNB.

Like-named read-outs stand apart in the source and are kept apart here.

`COC(=O)N1CCC[C@@H]1C#CCN1CCCC1` [Compound 51J, (R)-Methyl 2-[3-(1-pyrrolidinyl)-1-propynyl]-1-pyrrolidinecarboxylate]: the ED50 in experiment [1] is over 100 mg/kg; with HCl-induced writhing it was 11 mg/kg. Further, the Ki was determined as 57 nM at CNS cholinergic receptor [2] and 460 nM at CNS cholinergic receptor [3].
Turning to `CCOC(=O)N1CCC[C@@H]1C#CCN1CCCC1` [Compound 51L, (R)-Ethyl 2-[3-(1-pyrrolidinyl)-1-propynyl]-1-pyrrolidinecarboxylate], the ED50 was over 100 mg/kg in experiment [1] and over 50 mg/kg in the experiment on HCl-induced writhing. The Ki stood at 50 nM at CNS cholinergic receptor [2] and 760 nM at CNS cholinergic receptor [3].
The like results for `C#CCN1CCN(CC#CCN2CCCC2)C1=O` [Compound 14, 1-(2-Propynyl)-3-[4-(1-pyrrolidinyl)-2-butynyl]-2-imidazolidinone] were, in that order, over 30 mg/kg, over 25 mg/kg, 200 nM and 2300 nM.
For `CN(C)C(=O)N1CCC[C@@H]1C#CCN1CCCC1` [Compound 51E, (R)-N,N-Dimethyl 2-[3-(1-pyrrolidinyl)-1-propynyl]-1-pyrrolidinecarboxamide], the values for the ED50 (in experiment [1]; with HCl-induced writhing) were 25 mg/kg and over 50 mg/kg, respectively. In addition, the Ki on CNS cholinergic receptor [2] was determined as 12 nM; at CNS cholinergic receptor [3], 43 nM.
On to `CN(C)CC#CCN1CCN(C)C1=O` [Compound 10, 1-[4-(1-Dimethylamino)-2-butynyl]-3-methyl-2-imidazolidinone], for which the ED50 in experiment [1] was over 10 mg/kg; in the experiment with HCl-induced writhing, over 13 mg/kg. For the same molecule, the Ki amounted to 4.5 nM at CNS cholinergic receptor [2] and 180 nM at CNS cholinergic receptor [3].
Regarding `N#CN1CCC[C@@H]1C#CCN1CCCC1` [Compound 51I, (R)-2-[3-(1-pyrrolidinyl)-1-propynyl]-1-pyrrolidinecarbonitrile], the ED50 was over 30 mg/kg in experiment [1] and 25 mg/kg in the experiment with HCl-induced writhing. Moreover, the Ki at CNS cholinergic receptor [2] was 310 nM; at CNS cholinergic receptor [3], over 10000 nM.
The like results for `CC1CN(C(=O)OC(C)(C)C)C(=O)N1CC#CCN1CCCC1` (stereo not shown) [Compound 18, t-Butyl 4-methyl-2-oxo-3-[4-(1-pyrrolidinyl)-2-butynyl]-1-imidazolidinecarboxylate] were, in that order, over 30 mg/kg, 25 mg/kg, 180 nM and 820 nM.
In the same order, the values of `O=C1NCCN1CC#CCN1CCCC1` [Compound 9, 1-[4-(1-Pyrrolidinyl)-2-butynyl]-2-imidazolidinone] are over 3 mg/kg, 2.2 mg/kg, 13 nM and 800 nM.
In the same order, the values of `CN1CCN(CC#CCN2CCCC2)C1=O` [Compound 1, 1-Methyl-3-[4-(1-pyrrolidinyl)-2-butynyl]-2-imidazolidinone] are over 3 mg/kg, 0.2 mg/kg, 2.7 nM and 180 nM.
As for `CN(C)CC#C[C@H]1CCCN1C(=O)OC(C)(C)C` [Compound 49C, (R)-t-Butyl 2-[3-(dimethylamino)-1-propynyl]-1-pyrrolidinecarboxylate], the ED50 in experiment [1] is over 100 mg/kg; in the experiment with HCl-induced writhing, over 50 mg/kg. Moreover, the figures for the Ki on CNS cholinergic receptor [2] and on CNS cholinergic receptor [3] were 44 nM and over 10000 nM, respectively.
The like results for `CC(C)(C)OC(=O)N1CCC[C@@H]1C#CCN1CCCC1` [Compound 49A, (R)-t-Butyl 2-[3-(1-pyrrolidinyl)-1-propynyl]-1-pyrrolidine-carboxylate] were, in that order, 100 mg/kg, 13 mg/kg, 20 nM and 430 nM.
Consider `CN(C)CC#CCN1CCN(c2ccccc2)C1=O` [Compound 21, 1-[4-(Dimethylamino)-2-butynyl]-3-phenyl-2-imidazolidinone], for which the ED50 was over 100 mg/kg in experiment [1] and over 50 mg/kg in the experiment with HCl-induced writhing. Moreover, the figures for the Ki on CNS cholinergic receptor [2] and on CNS cholinergic receptor [3] were 840 nM and over 10000 nM, respectively.
Take `CNC(=O)N1CCC[C@@H]1C#CCN1CCCC1` [Compound 51G, (R)-N-Methyl 2-[3-(1-pyrrolidinyl)-1-propynyl]-1-pyrrolidinecarboxamide]: the ED50 in experiment [1] was over 100 mg/kg; in the experiment on HCl-induced writhing it was over 50 mg/kg. The Ki on CNS cholinergic receptor [2] was 240 nM; at CNS cholinergic receptor [3], over 10000 nM.
In the same order, the values of `CC1CN(CC#CCN2CCCC2)C(=O)N1` (stereo not shown) [Compound 15, 4-Methyl-1-[4-(1-pyrrolidinyl)-2-butynyl]-2-imidazolidinone] are over 10 mg/kg, over 13 mg/kg, 140 nM and 1000 nM.
The like results for `CC(C)(C)OC(=O)N1CCN(CC#CCN2CCCC2)C1=O` [Compound 8, t-Butyl 2-oxo-3-[4-(1-pyrrolidinyl)-2-butynyl]-1-imidazolidinecarboxylate] were, in that order, over 100 mg/kg, 25 mg/kg, 130 nM and 2200 nM.
`CC1CN(C)C(=O)N1CC#CCN1CCCC1` (stereo not shown) [Compound 19, 1,4Dimethyl-3-[4-(1-pyrrolidinyl)-2-butynyl]-2-imidazolidinone]: the figures for the ED50 (in experiment [1]; in the experiment with HCl-induced writhing) were 6.6 mg/kg and over 13 mg/kg, respectively. In addition, the Ki came out at 4 nM at CNS cholinergic receptor [2] and 20 nM at CNS cholinergic receptor [3].
The like results for `CC(=O)N1CCC[C@@H]1C#CCN(C)C` [Compound 51C, (R)-1-Acetyl-2-[3-(dimethylamino)-1-propynyl]pyrrolidine] were, in that order, over 100 mg/kg, over 50 mg/kg, 130 nM and over 10000 nM.
In the same order, the values of `CN(C)C(=O)N1CCC[C@H]1C#CCN1CCCC1` [Compound 51F, (S)-N,N-Dimethyl 2-[3-(1-pyrrolidinyl)-1-propynyl]-1-pyrrolidinecarboxamide] are over 100 mg/kg, over 50 mg/kg, 460 nM and 2000 nM.
In the same order, the values of `CN(C)CC#C[C@@H]1CCCN1` [Compound 50D, (S)-N,N-dimethyl-3-(2-pyrrolidinyl)-2-propyn-1-amine] are over 100 mg/kg, over 50 mg/kg, over 10000 nM and over 10000 nM.
As to `COC(=O)N1CCC[C@H]1C#CCN1CCCC1` [Compound 51K, (S)-Methyl 2-[3-(1-pyrrolidinyl)-1-propynyl]-1-pyrrolidinecarboxylate], the ED50 in experiment [1] is 97 mg/kg; with HCl-induced writhing it was over 50 mg/kg. For the same molecule, the Ki on CNS cholinergic receptor [2] stood at 130 nM; on CNS cholinergic receptor [3] it was 220 nM.
The like results for `CC1CN(CC#CCN2CCCC2)C(=O)N1C(=O)OC(C)(C)C` (stereo not shown) [Compound 17, t-Butyl 5-methyl-2-oxo-3-[4-(1-pyrrolidinyl)-2-butynyl]-1-imidazolidinecarboxylate] were, in that order, over 100 mg/kg, over 25 mg/kg, 810 nM and 2700 nM.
The like results for `O=C1N(CC#CCN2CCCC2)CCN1c1ccccc1` [Compound 20, 1-Phenyl-3-[4-(1-pyrrolidinyl)-2-butynyl]-2-imidazolidinone] were, in that order, over 30 mg/kg, over 25 mg/kg, 69 nM and 170 nM.
In the same order, the values of `CN(C)CC#CCN1CCN(C(=O)OC(C)(C)C)C1=O` [Compound 11, t-Butyl 3-[4-(dimethylamino)-2-butynyl]-2-oxo-1-imidazolidinecarboxylate] are over 100 mg/kg, over 50 mg/kg, 160 nM and 4700 nM.
As for `CC(=O)N1CCC[C@H]1C#CCN(C)C` [Compound 51D, (S)-1-Acetyl-2-[3-(dimethylamino)-1-propynyl]pyrrolidine], the ED50 was over 100 mg/kg in experiment [1] and over 50 mg/kg in the experiment with HCl-induced writhing. Besides, the Ki at CNS cholinergic receptor [2] was 10000 nM; at CNS cholinergic receptor [3], over 10000 nM.
In the same order, the values of `CC(C)(C)OC(=O)N1CCC[C@H]1C#CCN1CCCC1` [Compound 49B, (S)-t-Butyl 2-[3-(1-pyrrolidinyl)-1-propynyl]-1-pyrrolidinecarboxylate] are over 100 mg/kg, over 50 mg/kg, 3500 nM and over 10000 nM.
